Measured values: ChEMBL document CHEMBL4043168, “The design and SAR of a novel series of 2-aminopyridine based LRRK2 inhibitors” (Bioorg Med Chem Lett, 2017)

Key:
[1] = target: Tyrosine-protein kinase Lyn (Homo sapiens) (UniProt P07948); assay: Inhibition of LYN activation Loop (EGAKFPIKWTAPEAINFGCFTIK) in human PBMC at 0.1 uM
[2] = Inhibition of GCK conserved Lys1 (DTVTSELAAVKIVK) in human PBMC at 1 uM
[3] = target: Ribosomal protein S6 kinase alpha-5 (Homo sapiens) (UniProt O75582); assay: Inhibition of MSK1 domain1 conserved Lys2 (DIKLENILLDSNGHVVLTDFGLSK) in human PBMC at 1 uM
[4] = target: Cyclin-dependent kinase 11B (Homo sapiens) (UniProt P21127); assay: Inhibition of CDK11 labeling at conserved Lys2 (DLKPANILVMGEGPER) in human PBMC at 1 uM
[5] = target: T1, Serine/threonine-protein kinase 4 (Homo sapiens) (UniProt Q13043); assay: Inhibition of MST1 conserved Lys2 (DIKAGNILLNTEGHAK) in human PBMC at 1 uM
T1 sequence (whole entry): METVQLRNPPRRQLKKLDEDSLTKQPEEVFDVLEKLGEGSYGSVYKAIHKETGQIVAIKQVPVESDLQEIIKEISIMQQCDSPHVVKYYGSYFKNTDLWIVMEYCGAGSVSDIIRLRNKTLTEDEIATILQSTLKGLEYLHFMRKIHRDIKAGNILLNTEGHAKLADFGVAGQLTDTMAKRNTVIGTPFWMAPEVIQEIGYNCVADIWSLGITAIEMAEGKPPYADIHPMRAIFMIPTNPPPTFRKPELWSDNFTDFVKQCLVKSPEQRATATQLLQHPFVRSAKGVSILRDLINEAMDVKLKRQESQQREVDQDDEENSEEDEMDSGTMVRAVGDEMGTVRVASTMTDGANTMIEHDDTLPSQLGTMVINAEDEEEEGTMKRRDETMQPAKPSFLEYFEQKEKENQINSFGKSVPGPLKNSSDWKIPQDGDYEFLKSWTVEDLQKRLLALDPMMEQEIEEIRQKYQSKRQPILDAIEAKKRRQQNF

[6] = target: Serine/threonine-protein kinase SMG1 (Homo sapiens) (UniProt Q96Q15); assay: Inhibition of SMG1 ATP binding site (SYPYLFKGLEDLHLDER) in human PBMC at 0.1 uM
[7] = target: T1, Serine/threonine-protein kinase 4 (Homo sapiens); assay: Inhibition of MST1 conserved Lys1 ETGQIVAIKQVPVESDLQEIIK in human PBMC at 1 uM
[8] = target: Ribosomal protein S6 kinase alpha-3 (Homo sapiens) (UniProt P51812); assay: Inhibition of RSK2 conserved Lys2 (DLKPENILLDEEGHIK) in human PBMC at 0.1 uM
[9] = target: PAN2-PAN3 deadenylation complex subunit PAN3 (Homo sapiens) (UniProt Q58A45); assay: Inhibition of PAN3 Protein Kinase Domain (VMDPTKILITGK) in human PBMC at 1 uM
[10] = target: T1, Serine/threonine-protein kinase 4 (Homo sapiens); assay: Inhibition of MST1 conserved Lys1 ETGQIVAIKQVPVESDLQEIIK in human PBMC at 0.1 uM
[11] = target: PAN2-PAN3 deadenylation complex subunit PAN3 (Homo sapiens) (UniProt Q58A45); assay: Inhibition of PAN3 Protein Kinase Domain (VMDPTKILITGK) in human PBMC at 0.1 uM
[12] = target: T2, Inhibitor of nuclear factor kappa-B kinase subunit epsilon (Homo sapiens) (UniProt Q14164); assay: Inhibition of IKKe conserved Lys2 (DIKPGNIMR) in human PBMC at 1 uM
T2 sequence (whole entry): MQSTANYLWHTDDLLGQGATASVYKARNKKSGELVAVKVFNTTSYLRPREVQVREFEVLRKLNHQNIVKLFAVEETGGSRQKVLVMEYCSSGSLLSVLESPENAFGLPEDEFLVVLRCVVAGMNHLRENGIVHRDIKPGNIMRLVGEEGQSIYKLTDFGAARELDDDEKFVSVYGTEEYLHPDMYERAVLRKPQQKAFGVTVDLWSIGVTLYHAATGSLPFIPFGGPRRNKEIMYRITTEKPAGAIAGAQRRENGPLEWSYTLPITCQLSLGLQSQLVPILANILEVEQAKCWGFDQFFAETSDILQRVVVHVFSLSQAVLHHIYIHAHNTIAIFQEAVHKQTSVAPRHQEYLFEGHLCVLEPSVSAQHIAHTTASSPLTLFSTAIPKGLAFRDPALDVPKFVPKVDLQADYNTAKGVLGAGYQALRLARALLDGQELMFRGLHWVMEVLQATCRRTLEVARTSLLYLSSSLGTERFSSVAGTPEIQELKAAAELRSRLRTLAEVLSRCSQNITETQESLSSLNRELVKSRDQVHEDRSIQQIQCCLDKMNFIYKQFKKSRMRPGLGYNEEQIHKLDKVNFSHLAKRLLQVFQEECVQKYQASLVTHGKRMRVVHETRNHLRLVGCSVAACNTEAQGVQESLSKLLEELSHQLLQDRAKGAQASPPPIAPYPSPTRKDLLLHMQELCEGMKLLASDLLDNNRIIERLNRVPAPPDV

[13] = target: Tyrosine-protein kinase HCK (Homo sapiens) (UniProt P08631); assay: Inhibition of HCK activation Loop (EGAKFPIKWTAPEAINFGSFTIK) in human PBMC at 1 uM
[14] = target: Cyclin-dependent kinase 2 (Homo sapiens) (UniProt P24941); assay: Inhibition of CDK2 labeling at conserved Lys1 (LTGEVVALKK) in human PBMC at 1 uM
[15] = target: Activated CDC42 kinase 1 (Homo sapiens) (UniProt Q07912); assay: Inhibition of ACK labeling at ATP binding site (TVSVAVKCLKPDVLSQPEAMDDFIR) in human PBMC at 1 uM
[16] = target: Mitogen-activated protein kinase 3 (Homo sapiens) (UniProt P27361); assay: Inhibition of Erk1 ATP binding site (DLKPSNLLINTTCDLK) in human PBMC at 0.1 uM
[17] = target: Tyrosine-protein kinase JAK1 (Homo sapiens) (UniProt P23458); assay: Inhibition of JAK1 domain1 (QLASALSYLEDKDLVHGNVCTKNLLLAR) in human PBMC at 1 uM
[18] = target: Receptor-interacting serine/threonine-protein kinase 3 (Homo sapiens) (UniProt Q9Y572); assay: Inhibition of RIPK3 conserved Lys2 (DLKPSNVLLDPELHVK) in human PBMC at 1 uM
Receptor-interacting serine/threonine-protein kinase 3 (Homo sapiens), sequence (Q9Y572 whole entry, looked up): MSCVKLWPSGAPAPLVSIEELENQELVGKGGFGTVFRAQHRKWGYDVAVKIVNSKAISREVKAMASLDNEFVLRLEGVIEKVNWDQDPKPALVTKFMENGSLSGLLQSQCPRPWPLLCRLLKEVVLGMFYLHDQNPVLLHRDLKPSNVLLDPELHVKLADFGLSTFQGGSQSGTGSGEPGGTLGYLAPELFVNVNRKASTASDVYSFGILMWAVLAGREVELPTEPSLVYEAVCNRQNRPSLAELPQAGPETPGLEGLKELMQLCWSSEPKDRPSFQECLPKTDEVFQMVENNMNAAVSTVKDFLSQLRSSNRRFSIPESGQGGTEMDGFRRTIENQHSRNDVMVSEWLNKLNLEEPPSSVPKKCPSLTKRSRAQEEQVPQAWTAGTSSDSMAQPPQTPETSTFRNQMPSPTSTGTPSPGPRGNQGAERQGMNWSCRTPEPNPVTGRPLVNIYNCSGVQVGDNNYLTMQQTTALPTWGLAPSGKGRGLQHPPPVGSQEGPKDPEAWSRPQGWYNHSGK

PAN2-PAN3 deadenylation complex subunit PAN3 (Homo sapiens), sequence (Q58A45 whole entry, the tested form may be a part, one chain of several): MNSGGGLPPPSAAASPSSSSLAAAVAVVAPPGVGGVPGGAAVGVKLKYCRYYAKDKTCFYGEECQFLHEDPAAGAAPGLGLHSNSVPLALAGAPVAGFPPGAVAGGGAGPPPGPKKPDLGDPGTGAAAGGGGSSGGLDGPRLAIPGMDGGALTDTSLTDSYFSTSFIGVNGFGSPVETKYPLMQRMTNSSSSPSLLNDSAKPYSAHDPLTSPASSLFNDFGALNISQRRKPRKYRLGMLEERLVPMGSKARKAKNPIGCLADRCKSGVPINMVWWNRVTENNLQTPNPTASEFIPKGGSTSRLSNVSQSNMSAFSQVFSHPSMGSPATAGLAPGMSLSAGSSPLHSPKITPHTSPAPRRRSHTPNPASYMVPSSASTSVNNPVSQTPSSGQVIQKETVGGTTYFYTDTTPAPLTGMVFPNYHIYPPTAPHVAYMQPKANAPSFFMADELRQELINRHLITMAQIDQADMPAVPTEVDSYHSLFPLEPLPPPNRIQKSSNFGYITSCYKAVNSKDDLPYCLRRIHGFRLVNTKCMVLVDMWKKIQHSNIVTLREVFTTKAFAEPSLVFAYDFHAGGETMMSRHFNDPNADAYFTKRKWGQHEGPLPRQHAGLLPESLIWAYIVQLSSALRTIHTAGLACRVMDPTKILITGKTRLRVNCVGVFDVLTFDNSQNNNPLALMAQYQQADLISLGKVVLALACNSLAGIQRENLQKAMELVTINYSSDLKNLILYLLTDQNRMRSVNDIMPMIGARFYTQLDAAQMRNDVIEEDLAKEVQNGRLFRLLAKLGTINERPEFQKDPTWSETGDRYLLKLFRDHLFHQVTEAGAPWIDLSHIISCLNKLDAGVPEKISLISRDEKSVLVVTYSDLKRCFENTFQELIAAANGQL
Ribosomal protein S6 kinase alpha-5 (Homo sapiens), sequence (O75582 whole entry, looked up, the tested form may be a part): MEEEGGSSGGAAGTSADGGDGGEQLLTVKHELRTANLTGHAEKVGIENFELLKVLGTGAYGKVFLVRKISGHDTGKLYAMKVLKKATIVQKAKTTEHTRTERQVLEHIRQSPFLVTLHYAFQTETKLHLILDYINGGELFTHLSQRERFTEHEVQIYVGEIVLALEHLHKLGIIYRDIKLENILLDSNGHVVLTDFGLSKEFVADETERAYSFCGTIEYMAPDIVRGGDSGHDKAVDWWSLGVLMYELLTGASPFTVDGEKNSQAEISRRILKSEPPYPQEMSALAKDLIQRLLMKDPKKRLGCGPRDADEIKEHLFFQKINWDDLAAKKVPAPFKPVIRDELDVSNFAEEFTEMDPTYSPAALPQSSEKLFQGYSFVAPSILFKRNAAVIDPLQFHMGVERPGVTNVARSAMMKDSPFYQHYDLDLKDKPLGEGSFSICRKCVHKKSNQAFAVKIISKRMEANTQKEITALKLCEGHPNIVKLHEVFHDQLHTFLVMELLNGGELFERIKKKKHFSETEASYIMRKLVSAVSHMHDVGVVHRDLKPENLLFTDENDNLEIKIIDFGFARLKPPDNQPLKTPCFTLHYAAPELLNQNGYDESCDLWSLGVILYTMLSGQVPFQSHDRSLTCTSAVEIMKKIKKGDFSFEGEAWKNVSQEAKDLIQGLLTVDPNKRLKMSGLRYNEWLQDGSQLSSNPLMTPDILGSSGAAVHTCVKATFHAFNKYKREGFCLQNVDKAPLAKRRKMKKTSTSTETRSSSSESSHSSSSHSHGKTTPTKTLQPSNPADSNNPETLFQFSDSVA
Ribosomal protein S6 kinase alpha-3 (Homo sapiens), sequence (P51812 whole entry, the tested form may be a part): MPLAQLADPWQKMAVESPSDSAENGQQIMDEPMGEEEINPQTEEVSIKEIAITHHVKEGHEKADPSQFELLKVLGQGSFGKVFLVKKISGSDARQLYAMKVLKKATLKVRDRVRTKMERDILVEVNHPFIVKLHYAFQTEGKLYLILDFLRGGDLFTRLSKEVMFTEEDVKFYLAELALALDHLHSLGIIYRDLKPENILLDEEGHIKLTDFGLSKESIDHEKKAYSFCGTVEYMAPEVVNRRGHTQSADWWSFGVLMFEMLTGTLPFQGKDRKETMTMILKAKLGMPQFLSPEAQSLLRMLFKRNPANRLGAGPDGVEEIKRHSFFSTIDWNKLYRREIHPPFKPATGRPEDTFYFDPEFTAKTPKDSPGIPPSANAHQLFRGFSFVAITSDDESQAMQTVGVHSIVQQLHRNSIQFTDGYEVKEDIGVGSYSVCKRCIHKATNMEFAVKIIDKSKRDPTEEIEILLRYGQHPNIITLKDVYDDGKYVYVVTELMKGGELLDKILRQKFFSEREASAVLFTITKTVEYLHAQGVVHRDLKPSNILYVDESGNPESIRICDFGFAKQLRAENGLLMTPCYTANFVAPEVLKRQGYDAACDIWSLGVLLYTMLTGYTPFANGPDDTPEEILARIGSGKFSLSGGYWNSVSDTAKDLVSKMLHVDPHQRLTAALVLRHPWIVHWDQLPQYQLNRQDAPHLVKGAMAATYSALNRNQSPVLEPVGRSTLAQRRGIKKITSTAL
Cyclin-dependent kinase 11B (Homo sapiens), sequence (P21127 whole entry): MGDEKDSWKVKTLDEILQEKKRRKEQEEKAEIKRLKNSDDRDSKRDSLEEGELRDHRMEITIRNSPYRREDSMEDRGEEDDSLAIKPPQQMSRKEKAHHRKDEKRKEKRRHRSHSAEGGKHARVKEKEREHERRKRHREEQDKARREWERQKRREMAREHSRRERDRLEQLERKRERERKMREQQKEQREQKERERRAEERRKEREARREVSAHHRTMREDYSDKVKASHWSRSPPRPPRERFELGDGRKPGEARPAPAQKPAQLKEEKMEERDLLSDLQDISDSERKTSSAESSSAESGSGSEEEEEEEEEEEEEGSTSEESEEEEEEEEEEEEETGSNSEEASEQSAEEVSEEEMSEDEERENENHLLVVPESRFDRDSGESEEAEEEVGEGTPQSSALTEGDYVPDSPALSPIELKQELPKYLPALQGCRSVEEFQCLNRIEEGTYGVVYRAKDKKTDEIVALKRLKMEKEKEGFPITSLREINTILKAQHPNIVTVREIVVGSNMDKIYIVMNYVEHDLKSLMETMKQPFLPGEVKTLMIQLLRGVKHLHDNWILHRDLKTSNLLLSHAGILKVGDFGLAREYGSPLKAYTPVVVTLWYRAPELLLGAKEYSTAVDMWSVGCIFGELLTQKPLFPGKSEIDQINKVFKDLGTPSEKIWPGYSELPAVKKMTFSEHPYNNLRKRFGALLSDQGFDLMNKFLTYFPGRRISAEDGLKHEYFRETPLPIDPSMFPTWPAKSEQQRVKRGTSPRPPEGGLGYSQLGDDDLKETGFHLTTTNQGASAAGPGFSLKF
Tyrosine-protein kinase JAK1 (Homo sapiens), sequence (P23458 whole entry, the tested form may be a part): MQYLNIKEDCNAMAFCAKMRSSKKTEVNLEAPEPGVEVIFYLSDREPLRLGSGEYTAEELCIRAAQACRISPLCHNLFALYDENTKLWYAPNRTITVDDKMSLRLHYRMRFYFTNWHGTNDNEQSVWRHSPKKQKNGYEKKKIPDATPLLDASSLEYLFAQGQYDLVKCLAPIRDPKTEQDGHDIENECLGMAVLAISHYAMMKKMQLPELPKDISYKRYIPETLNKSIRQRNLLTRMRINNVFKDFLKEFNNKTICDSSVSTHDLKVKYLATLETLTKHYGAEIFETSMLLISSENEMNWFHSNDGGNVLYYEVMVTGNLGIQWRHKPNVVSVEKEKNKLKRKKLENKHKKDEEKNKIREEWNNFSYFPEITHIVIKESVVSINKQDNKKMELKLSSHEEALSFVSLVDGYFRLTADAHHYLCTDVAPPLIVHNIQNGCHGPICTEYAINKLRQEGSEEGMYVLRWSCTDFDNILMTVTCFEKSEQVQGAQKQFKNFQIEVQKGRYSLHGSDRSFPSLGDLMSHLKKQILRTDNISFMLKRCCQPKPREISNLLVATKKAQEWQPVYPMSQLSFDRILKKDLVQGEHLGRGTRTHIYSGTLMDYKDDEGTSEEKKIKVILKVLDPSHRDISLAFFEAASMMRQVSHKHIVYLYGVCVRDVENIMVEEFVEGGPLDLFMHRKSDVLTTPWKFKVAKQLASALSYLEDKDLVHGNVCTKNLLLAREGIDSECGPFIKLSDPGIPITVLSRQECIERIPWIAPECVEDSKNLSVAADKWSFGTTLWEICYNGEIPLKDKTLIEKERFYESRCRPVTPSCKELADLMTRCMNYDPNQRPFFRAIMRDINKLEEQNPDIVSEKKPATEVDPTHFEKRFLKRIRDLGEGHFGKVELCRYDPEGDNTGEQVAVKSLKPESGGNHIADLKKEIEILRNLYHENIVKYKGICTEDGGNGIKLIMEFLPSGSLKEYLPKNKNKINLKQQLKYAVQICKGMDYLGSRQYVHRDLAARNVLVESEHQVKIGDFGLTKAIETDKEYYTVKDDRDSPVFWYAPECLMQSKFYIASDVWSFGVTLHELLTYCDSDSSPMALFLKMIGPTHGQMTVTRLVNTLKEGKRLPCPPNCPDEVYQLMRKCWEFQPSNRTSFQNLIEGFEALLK

CC(C)n1cc(-c2cc(-c3ccc(CN4CCOCC4)cc3)cnc2N)nn1
inhibition [1]: 6.1% | inhibition [2]: 0.5% | inhibition [3]: 9.8% | inhibition [4]: 1.5% | inhibition [5]: 0% | inhibition [6]: 12.7% | inhibition [7]: -9.5% | inhibition [8]: 11.8% | inhibition [9]: 0.1% | inhibition [10]: -6.6% | inhibition [11]: 6.2% | inhibition [12]: 11% | inhibition [13]: -2.2% | inhibition [14]: 11.3% | inhibition [15]: -5.7% | inhibition [16]: -6.4% | inhibition [17]: 1.8% | inhibition [18]: -7.3%
